What was measured:
[1] = system: Monoclonal Antibody TCA 1.1; assay: Competitive microplate ELISA of imipramine with monoclonal antibody TCA 1.1, wells coated with compound 11 conjugate; assay type: binding, mouse; conditions: compound 11 coated wells, mAb TCA 1.1
Description: (§1) To analyze the sera for antibody content an ELISA assay using the cognate antigen linked to a different protein (2-carboxypropyl-dihydroamitriptyline-BSA) (compound 11) was used. This antigen was diluted to 5 μg/ml in 0.1 M carbonate buffer, pH 9.5. A volume of 100 μl of this antigen solution was pipetted into wells of a polystyrene 96-well microplate (Costar, Cambridge, Mass.). This was incubated in a plastic bag at 37° C. for 1 hour. The solutions were then removed via suction, and wells were filled with a blocking solution. This consisted of gelatine hydrolysate, 1%, sucrose, 2%, Tris, 0.15 M, pH 7.4 (all reagents from Sigma Chemicals). This was allowed to block the plates for 1 hour at room temperature in plastic bags. Wells were then emptied via suction.
(§2) Dilutions of the sera were prepared by transferring 1 μl to a glass test tube containing 1 ml of phosphate buffered saline, with 0.1% Tween 20 (PBS-T). One hundred and fifty microliters of this dilution of each serum were transferred to wells in Row A of a polyvinyl chloride microplate. All other wells were filled with 100 μl of PBS-T. Serial three-fold dilutions were prepared by transferring 50 μl from Row A to Row B using a multi-channel micropipettor. Mixing was accomplished by re-pipetting 3 times. This was repeated from Row B to C and so on down each column of wells.
(§3) Once all dilutions were prepared, 95 μl of each, starting with Row H, was transferred to the same row in the coated plate. The plate was placed in a Ziploc plastic bag with a damp piece of paper towel and incubated at 37° C. for one hour. Following incubation, the wells were washed four times manually with 300 μl aliquots of PBS-T. A 1:5000 dilution of goat anti-mouse IgG AM-HRP conjugate (Kirkegaard & Perry, Gaithersburg, Md.) was prepared in PBS-T. 100 μl of this was then pipetted into each well, the plate again incubated as above. The plate was then washed 6 times with 300 μl of PBS-T manually, and 100 μl of K-Blue substrate (Neogen, Lexington, Ky.) was added to each well. This was allowed to develop in the dark for 5 minutes, and the reaction was then stopped by the addition of 100 μl of a 2 M phosphoric acid solution. The optical densities of the wells were read using a Molecular Devices Tmax plate reader and a Macintosh computer.
(§4) Hybridoma clone TCA 1.1 was placed into high-density culture and supernatant harvested. This preparation was preserved by the addition of thimerosal to a concentration of 0.02%. Antibody content was evaluated by a titer experiment in which varying dilutions of supernatant were placed into microplate wells coated with a constant amount of antigen conjugate.
(§5) Incubation for 1 hour at 37° C. was followed by the same procedure as for the screening assays. Optical densities were plotted versus the final concentration of imipramine calculated as a molar (gram-molecular weight drug per liter) concentration.

[2] = system: Monoclonal Antibody TCA 1.1; assay: Competitive microplate ELISA of imipramine with monoclonal antibody TCA 1.1, wells coated with compound 27 conjugate; assay type: binding, mouse; conditions: compound 27 coated wells, mAb TCA 1.1
Description: as §1, §2, §3
This animal received a booster immunization of 100 μg of antigen in incomplete Freund's adjuvant four days before the fusion was performed. The myeloma cell line F0 (ATCC, Manassas, Va.) was used for the fusion. The fusion was performed by the method of de St Groth and Scheidegger, Journal of Immunol. Meth. 35, 1-21, 1980. Ten days later hybrid cell cultures were ready for screening.
as §4, §5

[3] = imipramine final concentration 1.98 × 10^−6 molar
[4] = imipramine final concentration 2.2 × 10^−7 molar
[5] = imipramine final concentration 2.45 × 10^−8 molar
[6] = imipramine final concentration 6.6 × 10^−7 molar
[7] = imipramine final concentration 7.43 × 10^−8 molar
[8] = imipramine final concentration 8.15 × 10^−9 molar

## CN(C)CCCN1c2ccccc2CCc2ccccc21 [Imipramine, imipramine]
[1]; [3]
  OD450 compound 11: 0.056
[1]; [4]
  OD450 compound 11: 1.35
[1]; [5]
  OD450 compound 11: 2.325
[1]; [6]
  OD450 compound 11: 0.541
[1]; [7]
  OD450 compound 11: 1.95
[1]; [8]
  OD450 compound 11: 2.6
[2]; [3]
  OD450 compound 27: 0.037
[2]; [4]
  OD450 compound 27: 0.276
[2]; [5]
  OD450 compound 27: 1.719
[2]; [6]
  OD450 compound 27: 0.038
[2]; [7]
  OD450 compound 27: 1.124
[2]; [8]
  OD450 compound 27: 2.434
